{
  "source": "patent US4199600A",
  "about": "“Preservation of aqueous systems with α-halo-β-aminocrotonic acid esters” (Givaudan Corporation, priority 1978, dated 1980)",
  "assay_type_in_all_cases": "cell-based",
  "key": {"Pseudomonas aeruginosa [1]": {"test_system": "Pseudomonas aeruginosa", "test": "Textile lubricant preservative test", "conditions": "commercial textile lubricant, 28° C.", "protocol": "(§1) In running these tests, two-fold serial dilutions of 6% solutions of the compound in dimethylformamide was added to 3.3% cutting oil elumsions. The emulsions were prepared by diluting with water a commercially available cutting oil concentrate. The emulsions were inoculated with a culture of Pseudomonas aeruginosa and incubated at 28° C. on a rotary shaker. At weekly intervals, the emulsions were examined for bacteria by conventional streakplate methods. The emulsions were then reinoculated with Pseudomonas aeruginosa and reincubated.\nThe test run was the same as for the cutting oil above except that a commercial textile lubricant was substituted."}, "Pseudomonas aeruginosa [2]": {"test_system": "Pseudomonas aeruginosa", "test": "Cutting oil preservative test in 3.3% cutting oil emulsion", "conditions": "for MIC: Pseudomonas aeruginosa, 3.3% cutting oil emulsion, 28° C., rotary shaker, read-out: Minimum Inhibitory Concentration Range", "protocol": "as §1"}, "E. aerogenes": {"test_system": "E. aerogenes", "test": "Slimicide test for pulp and paper mill water systems", "conditions": "Klebsiella aerogenes, 28° C.", "protocol": "(§2) Various quantities of a 6% solution of this compound in dimethylformamide were incorporated into 24 ml of a test substrate composed as follows:\n(§3) 8.4 g--Whatman No. 2 powdered cellulose\n(§4) 1.0 g--Nutrient Broth, Difco\n(§5) 10.0 ml--Mersize Rm 70R (Monsanto)\n(§6) The samples were inoculated with four different organisms and incubated at 28° C. At weekly intervals the samples were examined for the presence of microbial growth and reinoculated during a total incubation period of four weeks."}, "P. aeruginosa": {"test_system": "P. aeruginosa", "test": "Slimicide test for pulp and paper mill water systems", "conditions": "28° C.", "protocol": "as §2, §3, §4, §5, §6"}, "A. niger": {"test_system": "A. niger", "test": "Slimicide test for pulp and paper mill water systems", "conditions": "28° C.", "protocol": "as §2, §3, §4, §5, §6"}, "P. Piscarium": {"test_system": "P. Piscarium", "test": "Slimicide test for pulp and paper mill water systems", "conditions": "28° C.", "protocol": "as §2, §3, §4, §5, §6"}, "Aspergillis oryzae": {"test_system": "Aspergillis oryzae", "test": "General antimicrobial activity, agar dilution MIC (fungi)", "conditions": "168 h, mildew glucose agar, 28° C., seven days, growth only at the lower concentration of the range, read-out: Minimum Inhibitory Concentration", "protocol": "A 6% soltuion of α-halo-β-aminocrotonic acid ester in dimethyl formamide was prepared. The 6% solution was then […] serially diluted in test tubes to give the desired concentrations when mixed with agar and poured into sterile Petri dishes. For instance, 0.8 ml of a 6% stock solution plus 24.2 ml of agar gives a test concentration of 1920 mcg/ml, the highest level tested. Tryptone glucose extract agar is used for the bacterial testing; mildew glucose agar for the fungal testing. The bacterial plates were spot inoculated with 24-hour nutrient broth cultures and incubated at 37° C. for 48 hours. The fungal plates were spot inoculated with spore suspensions and incubated at 28° C. for seven days. At the end of the incubation periods, all plates were examined for growth. The minimum inhibitory concentration (MIC) for each organism is expressed in Table I. In the ranges presented, growth is observed only at the lower concentration."}, "Aspergillus niger": {"test_system": "Aspergillus niger", "test": "Cosmetic preservative test in lotion", "conditions": "28° C.", "protocol": "(§7) The α-halo-β-aminocrotonic acid esters are effective cosmetic preservatives. Two-fold serial dilutions of 6% solutions of the α-halo-β-aminocrotonic acid esters in dimethylformamide were added to a cosmetic lotion of the following formulation: The lotions were inoculated with both Pseudomonas aeruginosa and Aspergillus niger and incubated at 28° C. At weekly intervals, the lotions were examined for microorganisms by conventional streak-plate methods or by macroscopic observation. The lotions were then reinoculated with the test organisms and reincubated."}, "Pseudomonas aeruginosa [3]": {"test_system": "Pseudomonas aeruginosa", "test": "Cosmetic preservative test in lotion", "conditions": "28° C.", "protocol": "as §7"}, "[4]": {"conditions": "week 1, read-out: Minimum Inhibitory Concentration Range"}, "[5]": {"conditions": "week 3, reinoculated weekly, read-out: Minimum Inhibitory Concentration Range"}, "[6]": {"conditions": "week 4, reinoculated weekly, read-out: Minimum Inhibitory Concentration Range"}, "[7]": {"conditions": "(week 4), reinoculated weekly, read-out: Effectiveness as a Slimicide"}, "[8]": {"conditions": "week 1, read-out: Effectiveness as a Slimicide"}, "[9]": {"conditions": "week 2, reinoculated weekly, read-out: Effectiveness as a Slimicide"}, "[10]": {"conditions": "week 3, reinoculated weekly, read-out: Effectiveness as a Slimicide"}},
  "note": "Where two headings read alike, the source gives them in different places.",
  "data": [
    {"compound": "COC(=O)/C(Cl)=C(/C)N", "note": "[α-Chloro-β-aminocrotonic acid methyl ester]", "values": [
      {"measurement": "MIC", "setting": "Pseudomonas aeruginosa [1]; [4]", "value": "62.5 to 125", "unit": "µg/mL"},
      {"measurement": "MIC", "setting": "Pseudomonas aeruginosa [1]; week 2, reinoculated weekly, read-out: Minimum Inhibitory Concentration Range", "value": "62.5 to 125", "unit": "µg/mL"},
      {"measurement": "MIC", "setting": "Pseudomonas aeruginosa [1]; [5]", "value": "62.5 to 125", "unit": "µg/mL"},
      {"measurement": "MIC", "setting": "Pseudomonas aeruginosa [1]; [6]", "value": "125 to 250", "unit": "µg/mL"},
      {"measurement": "MIC", "setting": "Pseudomonas aeruginosa [2]; week 1", "value": "< 31.3", "unit": "µg/mL"},
      {"measurement": "MIC", "setting": "Pseudomonas aeruginosa [2]; week 2, reinoculated weekly", "value": "62.5 to 125", "unit": "µg/mL"},
      {"measurement": "MIC", "setting": "Pseudomonas aeruginosa [2]; week 3, reinoculated weekly", "value": "125 to 250", "unit": "µg/mL"},
      {"measurement": "MIC", "setting": "Pseudomonas aeruginosa [2]; week 4, reinoculated weekly", "value": "250 to 500", "unit": "µg/mL"},
      {"measurement": "effectiveness as cutting oil preservative (in words)", "setting": "Pseudomonas aeruginosa [2]; overall statement on Table III", "value": "effective cutting preservative"},
      {"measurement": "MIC", "setting": "E. aerogenes; [7]", "value": "250 to 500", "unit": "µg/mL"},
      {"measurement": "MIC", "setting": "E. aerogenes; [8]", "value": "< 62.5", "unit": "µg/mL"},
      {"measurement": "MIC", "setting": "E. aerogenes; [9]", "value": "125 to 250", "unit": "µg/mL"},
      {"measurement": "MIC", "setting": "E. aerogenes; [10]", "value": "250 to 500", "unit": "µg/mL"},
      {"measurement": "Effectiveness as a Slimicide", "setting": "P. aeruginosa; (week 4), reinoculated weekly", "value": "< 62.5", "unit": "µg/mL"},
      {"measurement": "Effectiveness as a Slimicide", "setting": "P. aeruginosa; week 2, reinoculated weekly", "value": "< 62.5", "unit": "µg/mL"},
      {"measurement": "Effectiveness as a Slimicide", "setting": "P. aeruginosa; week 3, reinoculated weekly", "value": "< 62.5", "unit": "µg/mL"},
      {"measurement": "MIC", "setting": "P. aeruginosa; Pseudomonas aeruginosa, week 1, read-out: Effectiveness as a Slimicide", "value": "< 62.5", "unit": "µg/mL"},
      {"measurement": "Effectiveness as a Slimicide", "setting": "A. niger; (week 4), reinoculated weekly", "value": "< 62.5", "unit": "µg/mL"},
      {"measurement": "Effectiveness as a Slimicide", "setting": "A. niger; week 2, reinoculated weekly", "value": "< 62.5", "unit": "µg/mL"},
      {"measurement": "Effectiveness as a Slimicide", "setting": "A. niger; week 3, reinoculated weekly", "value": "< 62.5", "unit": "µg/mL"},
      {"measurement": "MIC", "setting": "A. niger; Aspergillus niger, week 1, read-out: Effectiveness as a Slimicide", "value": "< 62.5", "unit": "µg/mL"},
      {"measurement": "MIC", "setting": "P. Piscarium; [7]", "value": "62.5 to 125", "unit": "µg/mL"},
      {"measurement": "MIC", "setting": "P. Piscarium; [8]", "value": "< 62.5", "unit": "µg/mL"},
      {"measurement": "MIC", "setting": "P. Piscarium; [9]", "value": "< 62.5", "unit": "µg/mL"},
      {"measurement": "MIC", "setting": "P. Piscarium; [10]", "value": "< 62.5", "unit": "µg/mL"},
      {"measurement": "MIC", "setting": "Aspergillis oryzae", "value": 15, "unit": "µg/mL"},
      {"measurement": "MIC", "setting": "Aspergillus niger; [4]", "value": "< 125", "unit": "µg/mL"},
      {"measurement": "MIC", "setting": "Aspergillus niger; [5]", "value": "1000 to 2000", "unit": "µg/mL"},
      {"measurement": "MIC", "setting": "Aspergillus niger; [6]", "value": "> 2000", "unit": "µg/mL"},
      {"measurement": "Minimum Inhibitory Concentration Range", "setting": "Pseudomonas aeruginosa [3]; week 2, reinoculated weekly", "value": "< 125", "unit": "µg/mL"},
      {"measurement": "Minimum Inhibitory Concentration Range", "setting": "Pseudomonas aeruginosa [3]; week 3, reinoculated weekly", "value": "< 125", "unit": "µg/mL"},
      {"measurement": "Minimum Inhibitory Concentration Range", "setting": "Pseudomonas aeruginosa [3]; week 4, reinoculated weekly", "value": "< 125", "unit": "µg/mL"},
      {"measurement": "MIC", "setting": "Pseudomonas aeruginosa [3]; Pseudomonas aeruginosa, week 1, read-out: Minimum Inhibitory Concentration Range", "value": "< 125", "unit": "µg/mL"}
    ]}
  ]
}
